Measurements published in patent publication US11866458B2, “Panaxadiol glycoside derivative and preparation method and application thereof” (SUZHOU JI ER BIOLOGICAL MEDICINE CO., LTD., priority 2018, dated 2024).

Legend:
[1] = test system: COPD rats induced by smoke exposure; assay: COPD induced by smoke exposure in rats: lung function FEV0.2/FVC; type: in vivo, Wistar rats; conditions: for FEV2/FVC % (FEV0.2/FVC %, forced expiratory index within 200 ms): 180 days; for effect in COPD rats compared with inhaled budesonide: high dose group, oral
[2] = test system: inflammatory cells in bronchoalveolar lavage fluid of mice; assay: Determination of inflammatory cells in bronchoalveolar lavage fluid of mice (OVA asthma model); type: in vivo, BALB/C mice; parameters: unit not given here; conditions: oral
Description: 144 6-week-old BALB/C mice (18-20 g) were divided into 24 groups: control group, placebo group, dexamethasone group (3 mg/kg) and the drug groups. There were 6 in each group. The control group was given normal saline without any treatment. The other groups were sensitized by intraperitoneal injection of OVA 20 μg and aluminum hydroxide 200 μL PBC (2 mg, prepared into emulsion). […] On day 21, 22 and 23, the therapeutic agent (i.e. 3 mg/kg dexamethasone in the positive control group and oral administration in the drug group) was given orally. From day 17 to 23, PBS was given to the control group and placebo group respectively, PBS (without OVA) was given to the control group. On day 0 and day 14, the normal saline was nebulized for 30 minutes to remove the aluminum hydroxide on day 21, 22 and 23 See in Table 2.

[3] = test system: mouse asthma model induced by OVA; assay: Asthma induced by ovalbumin in Balb/c mice: IgE level in serum by ELISA; type: in vivo; conditions: oral; for content of IgE in mice serum (conclusion in words): model of mouse asthma induced by OVA, samples; for therapeutic effect on bronchial asthma induced by OVA: mouse
[4] = Table 1-1 (1st time), 20 mg/kg, 24 hours after last OVA stimulation

Structure (SMILES) | Acidic cells in bronchoalveolar lavage fluid ([2]; 2 mg/kg) | Neutral cells in bronchoalveolar lavage fluid ([2]; 2 mg/kg) | Total inflammatory cells in bronchoalveolar lavage fluid ([2]; 2 mg/kg) | lymphocyte in bronchoalveolar lavage fluid ([2]; 2 mg/kg) | Acidic cells in bronchoalveolar lavage fluid ([2]; 20 mg/kg) | Neutral cells in bronchoalveolar lavage fluid ([2]; 20 mg/kg) | Total inflammatory cells in bronchoalveolar lavage fluid ([2]; 20 mg/kg) | lymphocyte in bronchoalveolar lavage fluid ([2]; 20 mg/kg) | Neutral cells in bronchoalveolar lavage fluid ([2]; 200 mg/kg) | Total inflammatory cells in bronchoalveolar lavage fluid ([2]; 200 mg/kg) | lymphocyte in bronchoalveolar lavage fluid ([2]; 200 mg/kg) | Acidic cells in bronchoalveolar lavage fluid ([2]; 200 mg/kg) | Concentration of IgE in serum [3, 4] [ng/mL] | Concentration of IgE in serum ([3]; Table 1-2 (2nd time), 15 mg/kg) [ng/mL] | Concentration of IgE in serum ([3]; Table 1-2 (2nd time), 30 mg/kg) [ng/mL] | Concentration of IgE in serum ([3]; Table 1-2 (2nd time), 60 mg/kg) [ng/mL] | FEV2/FVC % (FEV0.2/FVC %, forced expiratory index within 200 ms) ([1]; 20 mg/kg oral) [%] | FEV2/FVC % (FEV0.2/FVC %, forced expiratory index within 200 ms) ([1]; 40 mg/kg oral) [%] | FEV2/FVC % (FEV0.2/FVC %, forced expiratory index within 200 ms) ([1]; 80 mg/kg oral) [%] | effect in COPD rats compared with inhaled budesonide [1] | further results
CCCC1O[C@@H]2C[C@H]3[C@@H]4CCC5=CC(=O)C=C[C@]5(C)[C@H]4[C@@H](O)C[C@]3(C)[C@]2(C(=O)CO)O1 (some centres unmarked) [Budesonide, reference compound] | – | – | – | – | – | – | – | – | – | – | – | – | – | – | – | – | – | – | – | – | FEV2/FVC % (FEV0.2/FVC %, forced expiratory index within 200 ms) ([1]; nebulized 0.25 mg/mL, 4 mL, 30 minutes): 79.47 ± 12.39 %
CC(=O)O[C@H]1CC[C@@]2(C)C(CC[C@]3(C)C2CC(=O)C2C([C@](C)(CCC=C(C)C)O[C@@H]4OC(CO)[C@@H](O)[C@H](O)C4O)CC[C@]23C)C1(C)C (stereo partly drawn) [IA, 3-O-acetyl-20(S)—O-β-D-glucopyranosyl Dammarane-24-ene-12-one] | 29.23 ± 10.29 | 10.40 ± 6.48 | 40.75 ± 26.14 | 11.81 ± 5.97 | 11.46 ± 4.12 | 6.38 ± 3.45 | 26.93 ± 15.01 | 8.84 ± 5.63 | 2.08 ± 2.01 | 10.85 ± 4.62 | 4.27 ± 3.16 | – | – | – | – | – | – | – | – | – | –
COC(=O)C1O[C@@H](O[C@@](C)(CCC=C(C)C)C2CC[C@]3(C)C2C(=O)CC2[C@@]4(C)CC[C@H](OC(C)=O)C(C)(C)C4CC[C@]23C)C(O)[C@@H](O)[C@@H]1O (stereo partly drawn) [IA-1, 3-β-O-acetyl-20(S)—O-β-D-glucopyranuronic acid methyl ester dammarane-24-ene-12-one] | 26.55 ± 13.23 | 10.21 ± 6.07 | 43.42 ± 26.14 | 13.22 ± 8.27 | 13.26 ± 3.92 | 3.95 ± 2.41 | 28.11 ± 14.91 | 4.76 ± 3.18 | 3.75 ± 2.46 | 11.48 ± 4.39 | 3.82 ± 2.66 | 5.22 ± 3.31 | – | – | – | – | – | – | – | – | –
CC(C)=CCC[C@](C)(O[C@@H]1OC(CO)[C@@H](O)[C@H](O)C1O)C1CC[C@]2(C)C1C(=O)CC1[C@@]3(C)CC[C@H](O)C(C)(C)C3CC[C@]12C (stereo partly drawn) [IB, 3β-hydroxyl-20(S)—O-β-D-glucopyranosyl dammarane-24-ene-12-one] | 31.19 ± 8.46 | 12.11 ± 7.22 | 46.76 ± 25.18 | 10.07 ± 6.12 | 9.35 ± 4.16 | – | 25.18 ± 13.12 | 7.53 ± 4.95 | 3.49 ± 2.37 | 12.53 ± 6.23 | 3.75 ± 2.18 | 5.14 ± 3.08 | 1337.11 ± 216.28 | 2023.33 ± 203.47 | 1909.19 ± 121.73 | 1769.13 ± 164.34 | 65.14 ± 12.78 | 73.59 ± 10.81 | 82.16 ± 9.01 | superior to budesonide | –
CC(C)=CCC[C@](C)(O[C@@H]1OC(CO)[C@H](O)[C@H](O)C1O)C1CC[C@]2(C)C1C(=O)CC1[C@@]3(C)CC[C@H](O)C(C)(C)C3CC[C@]12C (stereo partly drawn) [IC, 3p-hydroxyl-20(S)—O-β-D-galactopyranosyl dammarane-24-ene-12-one] | 31.51 ± 16.14 | 13.29 ± 7.12 | 50.77 ± 32.49 | 9.30 ± 6.85 | 18.44 ± 7.78 | 8.16 ± 5.03 | 32.95 ± 21.07 | 6.49 ± 5.28 | 5.17 ± 3.19 | 18.25 ± 9.48 | 3.77 ± 2.81 | 8.72 ± 3.31 | 975.82 ± 260.32 | 1908.70 ± 221.74 | 1738.93 ± 124.22 | 1575.92 ± 148.33 | 65.45 ± 14.17 | 76.64 ± 7.98 | 83.15 ± 8.42 | superior to budesonide | –
CC(C)=CCC[C@](C)(O[C@@H]1OC(CO)[C@@H](O)[C@H](O)C1O)C1CC[C@]2(C)C1C(=O)CC1[C@@]3(C)CC=CC(C)(C)C3CC[C@]12C (stereo partly drawn) [IH, 20(S)—O-β-D-glucopyranosyl dammarane-3, 24-diene-12-one] | – | – | – | – | – | – | – | – | – | – | – | – | 1191.08 ± 107.59 | 1682.40 ± 182.76 | 1311.37 ± 165.93 | 1150.59 ± 129.55 | 63.27 ± 14.65 | 73.59 ± 12.14 | 85.51 ± 15.27 | superior to budesonide | content of IgE in mice serum (conclusion in words) [3]: significantly reduce; therapeutic effect on bronchial asthma induced by OVA [3]: obvious therapeutic effect
CC(C)=CCC[C@](C)(O[C@@H]1OC[C@@H](O)[C@H](O)C1O)C1CC[C@]2(C)C1[C@H](O)CC1[C@@]3(C)CC[C@H](O)C(C)(C)C3CC[C@]12C (stereo partly drawn) [IJ, 20-O-β-D-xylopyranosyl-20(S)-panaxadiol glycoside] | – | – | – | – | – | – | – | – | – | – | – | – | 1250.07 ± 144.38 | 2068.41 ± 153.29 | 1824.85 ± 155.74 | 1622.18 ± 130.38 | 65.78 ± 12.35 | 77.57 ± 9.69 | 84.36 ± 7.10 | superior to budesonide | –
CC(C)=CCC[C@](C)(O[C@@H]1OC(C)[C@H](O)[C@H](O)C1O)C1CC[C@]2(C)C1[C@H](O)CC1[C@@]3(C)CC[C@H](O)C(C)(C)C3CC[C@]12C (some centres unmarked) [IK] | – | – | – | – | – | – | – | – | – | – | – | – | 1020.78 ± 136.94 | 1720.54 ± 165.49 | 1406.28 ± 171.05 | 1217.43 ± 162.75 | 67.67 ± 11.39 | 78.59 ± 6.12 | 85.56 ± 10.07 | superior to budesonide | content of IgE in mice serum (conclusion in words) [3]: significantly reduce; therapeutic effect on bronchial asthma induced by OVA [3]: obvious therapeutic effect
CC(C)=CCC[C@](C)(O[C@@H]1OC[C@H](O)[C@H](O)C1O)C1CC[C@]2(C)C1[C@H](O)CC1[C@@]3(C)CC[C@H](O)C(C)(C)C3CC[C@]12C (stereo partly drawn) [IL, 20-O-α-L-arabinopyrauosyl-20(S)-panaxadiol glycoside] | – | – | – | – | – | – | – | – | – | – | – | – | 996.36 ± 102.45 | 1548.67 ± 190.16 | 1311.37 ± 154.37 | 1080.12 ± 131.23 | 71.15 ± 10.34 | 80.25 ± 8.79 | 89.62 ± 5.14 | superior to budesonide | content of IgE in mice serum (conclusion in words) [3]: significantly reduce; therapeutic effect on bronchial asthma induced by OVA [3]: obvious therapeutic effect
